Values after ≈ are worked out from the molar mass of the structure shown.
What was measured:
Assay type in all cases: cell-based
Bacillus subtilis = assay: MIC against bacteria (serial dilution in nutrient broth); conditions: 37 C., 48 hrs
Experimental: (§1) In order to assay the effectiveness of the compounds of the present invention, the MIC(minimum inhibitory concentration) on bacteria, yeast and fungi were determined.
(§2) Minimum inhibitory concentrations were determined according to following procedure.
(§3) For the bacteriostatic activity, the said invention compounds were serially diluted with 10 ml of sterile nutrient broth. Each tube was inoculated with 1 drop of an aqueous suspension of the various test organisms containing approximately 1×10^6 organisms/ml and incubated at 37 C. for 48 hrs. After incubation, the IMC of the said invention compounds were determined as the lowest concentration of compound in which no microscopic evidence of growth was observed. The compounds and the MIC value against bacteria of the compounds can be seen from the following table 1.

Escherichia coli = assay: as above; conditions: 37 C., 48 hrs
Experimental: as §1, §2, §3

Pseudomonas aeruginosa = assay: as above; conditions: 37 C., 48 hrs
Experimental: as §1, §2, §3

Staphylococcus aureus = assay: as above; conditions: 37 C., 48 hrs
Experimental: as §1, §2, §3

Aspergillus flavus = assay: MIC for molds (sabouraud dextrose agar); conditions: 168 h, 25 C., 7 days, read-out: MIC for molds and yeast
Experimental: as §1
(§4) For the evaluation of fungistatic activity, each compound was serially diluted in test tubes to give the desired concentration when mixed with 20 ml of steriled molten sabouraud dextrose agar, and poured into sterile petri dishes.
(§5) After the medium was solidified, the spore-suspension of the each test organisms were inoculated by streaking and incubated at 25 C. for 7 days.
(§6) The minimum concentration of the compound effective for inhibiting the growth is determined by examining the growth of the each organism.
(§7) In the above mentioned method the MIC for yeast and molds of the compounds A,B,C,D and E were obtained and can be seen from the table 2.

Aspergillus niger = assay: MIC for molds (sabouraud dextrose agar); conditions: 168 h, 25 C., 7 days, read-out: MIC for molds and yeast
Experimental: as §1, §4, §5, §6, §7

Fusarium solani = assay: MIC for molds (sabouraud dextrose agar); conditions: 168 h, 25 C., 7 days, read-out: MIC for molds and yeast
Experimental: as §1, §4, §5, §6, §7

Tricoderma virid = assay: MIC for molds (sabouraud dextrose agar); conditions: 168 h, 25 C., 7 days, read-out: MIC for molds and yeast
Experimental: as §1, §4, §5, §6, §7

Candida albicans = assay: MIC for yeast (sabouraud dextrose agar); conditions: 168 h, 25 C., 7 days, read-out: MIC for molds and yeast
Experimental: as §1, §4, §5, §6, §7

bacteria = assay: MIC against bacteria, summary over the test bacteria; conditions: for MIC: 48 h, four bacteria of table 1, read-out: MIC value (range over the test bacteria)
Experimental: as §1, §2, §3

molds and yeast = assay: fungistatic activity, summary over molds and yeast; conditions: from table 2
Experimental: as §1, §4, §5, §6, §7

[1] = test system: micro-organisms, including bacteria, yeast and molds; assay: antimicrobial activity, bacteria, yeast and molds; conditions: comparison of table 2 with table 1
Experimental: as §1, §2, §3, §4, §5, §6

Q: How did the MIC (Bacillus subtilis) turn out when `O=C1NC(c2ccc(O)cc2)C(=O)N1CO` (centres unmarked) [A, 5-(4-hydroxyphenyl)-3-hydroxymethylhydantoin] was run?
A: Its MIC is 300 µg/mL (≈ 1.35 mM).

Q: What about the MIC (Escherichia coli) of the same compound?
A: Its MIC is 100 µg/mL (≈ 0.45 mM).

Q: And the MIC (Pseudomonas aeruginosa)?
A: The MIC was 200 µg/mL (≈ 0.9 mM).

Q: What about the MIC (Staphylococcus aureus) of the same compound?
A: The MIC was 200 µg/mL (≈ 0.9 mM).

Q: What about the MIC (Aspergillus flavus) of the same compound?
A: Its MIC is 3000 µg/mL (≈ 13.5 mM).

Q: What about the MIC (Aspergillus niger) of the same compound?
A: Its MIC is 2000 µg/mL (≈ 9 mM).

Q: And the MIC (Fusarium solani)?
A: The MIC was 1500 µg/mL (≈ 6.75 mM).

Q: What about the MIC (Tricoderma virid) of the same compound?
A: Its MIC is 1000 µg/mL (≈ 4.5 mM).

Q: And the MIC (Candida albicans)?
A: The MIC was 4000 µg/mL (≈ 18 mM).

Q: And the MIC (bacteria)?
A: Its MIC is 100 to 300 µg/mL (≈ 0.45 to 1.35 mM).

Q: And the “strength relative to compound C and D (times as strong)” value (bacteria; from MIC values of table 1)?
A: Its value is “about 10 times”.

Q: What about the “fungistatic activity compared with the compounds C and D” value (molds and yeast) of the same compound?
A: The value was “stronger fungistatic activities than the compounds C and D”.

Q: What about the “activity against bacteria compared with fungi and yeast” value [1] of the same compound?
A: Its value is “by far stronger activities against bacteria than fungi and yeast”.

Q: Which results are given for `O=C1C(c2ccc(O)cc2)N(CO)C(=O)N1CO` (centres unmarked) [B, 5-(4-hydroxyphenyl)-1,3-bis (hydroxymethyl)hydantoin]?
A: MIC (Bacillus subtilis): 200 µg/mL (≈ 0.793 mM); MIC (Escherichia coli): 100 µg/mL (≈ 0.396 mM); MIC (Pseudomonas aeruginosa): 100 µg/mL (≈ 0.396 mM); MIC (Staphylococcus aureus): 100 µg/mL (≈ 0.396 mM); MIC (Aspergillus flavus): 2000 µg/mL (≈ 7.93 mM); MIC (Aspergillus niger): 1000 µg/mL (≈ 3.96 mM); MIC (Fusarium solani): 1000 µg/mL (≈ 3.96 mM); MIC (Tricoderma virid): 1000 µg/mL (≈ 3.96 mM); MIC (Candida albicans): 2000 µg/mL (≈ 7.93 mM); MIC (bacteria): 100 to 200 µg/mL (≈ 0.396 to 0.793 mM); fungistatic activity compared with the compounds C and D (molds and yeast): stronger fungistatic activities than the compounds C and D; activity against bacteria compared with fungi and yeast [1]: by far stronger activities against bacteria than fungi and yeast

Q: With `CC(O)N1C(=O)C(c2ccc(O)cc2)N(C(C)O)C1=O` (centres unmarked) [C, 5-(4-hydroxyphenyl)-1,3-bis (1-hydroxyethyl)hydantoin] as the compound, how does the MIC (Bacillus subtilis) read?
A: Its MIC is 1000 µg/mL (≈ 3.57 mM).

Q: And the MIC (Escherichia coli)?
A: Its MIC is 700 µg/mL (≈ 2.5 mM).

Q: What about the MIC (Pseudomonas aeruginosa) of the same compound?
A: Its MIC is 1200 µg/mL (≈ 4.28 mM).

Q: And the MIC (Staphylococcus aureus)?
A: Its MIC is 700 µg/mL (≈ 2.5 mM).

Q: What about the MIC (Aspergillus flavus) of the same compound?
A: The MIC was 5000 µg/mL (≈ 17.8 mM).

Q: And the MIC (Aspergillus niger)?
A: Its MIC is 4000 µg/mL (≈ 14.3 mM).

Q: And the MIC (Fusarium solani)?
A: The MIC was 3000 µg/mL (≈ 10.7 mM).

Q: And the MIC (Tricoderma virid)?
A: Its MIC is 3000 µg/mL (≈ 10.7 mM).

Q: What about the MIC (Candida albicans) of the same compound?
A: Its MIC is 5000 µg/mL (≈ 17.8 mM).

Q: What about the MIC (bacteria) of the same compound?
A: Its MIC is 700 to 1500 µg/mL (≈ 2.5 to 5.35 mM).

Q: And the “activity against bacteria compared with fungi and yeast” value [1]?
A: Its value is “by far stronger activities against bacteria than fungi and yeast”.

Q: Which MIC (Bacillus subtilis) does the source give for `CCC(O)N1C(=O)C(c2ccc(O)cc2)N(C(O)CC)C1=O` (centres unmarked) [D, 5-(4-hydroxyphenyl)-1,3-bis (1-hydroxypropyl)hydantoin] here?
A: Its MIC is 1200 µg/mL (≈ 3.89 mM).

Q: And the MIC (Escherichia coli)?
A: Its MIC is 900 µg/mL (≈ 2.92 mM).

Q: And the MIC (Pseudomonas aeruginosa)?
A: The MIC was 1500 µg/mL (≈ 4.86 mM).

Q: What about the MIC (Staphylococcus aureus) of the same compound?
A: The MIC was 1000 µg/mL (≈ 3.24 mM).

Q: What about the MIC (Aspergillus flavus) of the same compound?
A: The MIC was 5000 µg/mL (≈ 16.2 mM).

Q: And the MIC (Aspergillus niger)?
A: The MIC was 3000 µg/mL (≈ 9.73 mM).

Q: What about the MIC (Fusarium solani) of the same compound?
A: The MIC was 3000 µg/mL (≈ 9.73 mM).

Q: And the MIC (Tricoderma virid)?
A: The MIC was 2000 µg/mL (≈ 6.49 mM).

Q: What about the MIC (Candida albicans) of the same compound?
A: The MIC was 5000 µg/mL (≈ 16.2 mM).

Q: What about the MIC (bacteria) of the same compound?
A: The MIC was 700 to 1500 µg/mL (≈ 2.27 to 4.86 mM).

Q: And the “activity against bacteria compared with fungi and yeast” value [1]?
A: The value was “by far stronger activities against bacteria than fungi and yeast”.

Q: Which results are given for `O=C1NC(c2ccc(O)c(Cl)c2)C(=O)N1CO` (centres unmarked) [E, 5-(3-Chloro-4-hydroxyphenyl)-3-hydroxymethylhydantoin]?
A: MIC (Bacillus subtilis): 500 µg/mL (≈ 1.95 mM); MIC (Escherichia coli): 100 µg/mL (≈ 0.39 mM); MIC (Pseudomonas aeruginosa): 100 µg/mL (≈ 0.39 mM); MIC (Staphylococcus aureus): 100 µg/mL (≈ 0.39 mM); MIC (Aspergillus flavus): 2000 µg/mL (≈ 7.79 mM); MIC (Aspergillus niger): 2000 µg/mL (≈ 7.79 mM); MIC (Fusarium solani): 1000 µg/mL (≈ 3.9 mM); MIC (Tricoderma virid): 1000 µg/mL (≈ 3.9 mM); MIC (Candida albicans): 2000 µg/mL (≈ 7.79 mM); MIC (bacteria): 100 to 500 µg/mL (≈ 0.39 to 1.95 mM); fungistatic activity compared with the compounds C and D (molds and yeast): stronger fungistatic activities than the compounds C and D; activity against bacteria compared with fungi and yeast [1]: by far stronger activities against bacteria than fungi and yeast

— patent publication US4440934A, “5-(4-Hydroxyphenyl) hydantoin derivatives” (Pacific Chemical Ind. Co., Ltd., priority 1981, dated 1984)
